Results reported in ChEMBL document CHEMBL4483862, “Open-source discovery of chemical leads for next-generation chemoprotective antimalarials” (2018).

Tested on: Plasmodium berghei
Experiment: Luciferase/luciferin-expressing antifolate-resistant parasites were used to infect a culture of HepG2 cells that were pre-incubated with compounds. Infected hepatocytes emit light due to the luciferase reaction. Assay results are presented as the percent inhibition of light emission compared to control. […]
Format: functional
Details: sporozoite; for IC90: read-out: LUCIFERASE INFECTION ASSAY - IC90
[1] = read-out: LUCIFERASE INFECTION ASSAY - IC50

Row | SMILES | IC90 [µM] | IC50 [1] [µM] | further results
1 | CSC(=NNc1ccc([N+](=O)[O-])cc1)NC(=O)c1c(Cl)cccc1Cl | > 8.27 | – | IC50 (PBLUC_HILL_SLOPE 1.5, PBLUC_R_SQUARED 0.194, read-out: LUCIFERASE INFECTION ASSAY - IC50): 7.91 µM
2 | CCOc1ncccc1C(=O)N(C)Cc1cn(-c2ccccc2)nc1-c1ccccc1 | 5.34 | 4.36 | –
3 | Cc1cc(=O)nc(N/N=C/c2cc(C)n(-c3ccc(C)c(C)c3)c2C)[nH]1 | > 10 | – | IC50 (PBLUC_HILL_SLOPE 2.67, PBLUC_R_SQUARED 0.2, read-out: LUCIFERASE INFECTION ASSAY - IC50): 9.4 µM
4 | N#Cc1sc(SCc2ccccc2)c2c1CC(c1ccccc1)CC2=O (centres undefined) | > 8.79 | – | IC50 (HEPG2TOX_HILL_SLOPE 1.94, HEPG2TOX_R_SQUARED 0.866, PBLUC_HILL_SLOPE 1.6, PBLUC_R_SQUARED 0.401, read-out: LUCIFERASE INFECTION ASSAY - IC50): 7.45 µM
5 | CC(C)Cc1ccc(C(C)NC(=O)c2ccc(O)nc2)cc1 (centres undefined) | > 10 | > 10 | –
6 | O=C1N=C(NC2CCCC2)S/C1=C\c1ccc(Cl)cc1 | > 10 | > 10 | –
7 | CN(C)S(=O)(=O)c1ccc(NC(=O)COc2ccc(Oc3ccc(C(F)(F)F)cn3)cc2)cc1 | > 10 | > 10 | –
8 | Cc1ccc2nc(NC(=O)c3ccc(F)c(F)c3)c(C(=O)NC3CCCC3)n2c1 | 1.33 | – | IC50 (FFLUC_HILL_SLOPE 15.6, FFLUC_R_SQUARED 0.751, HEPG2TOX_HILL_SLOPE 0.983, HEPG2TOX_R_SQUARED 0.896, PBLUC_HILL_SLOPE 4.3, PBLUC_R_SQUARED 0.744, read-out: LUCIFERASE INFECTION ASSAY - IC50): 0.8 µM
9 | COc1ccc(-c2nonc2NC(=O)c2sc3cc(C)ccc3c2Cl)cc1 | 6.5 | – | IC50 (HEPG2TOX_HILL_SLOPE 8.9, HEPG2TOX_R_SQUARED 0.644, PBLUC_HILL_SLOPE 6.34, PBLUC_R_SQUARED 0.0844, read-out: LUCIFERASE INFECTION ASSAY - IC50): 4.6 µM
10 | N#Cc1ccc(NC(=O)c2cnn(Cc3ccccc3Cl)c2)cc1 | > 10 | > 10 | –
11 | COc1c(Cl)cc(C(=O)Nc2nonc2-c2ccc(F)cc2)cc1Cl | 2.81 | – | IC50 (HEPG2TOX_HILL_SLOPE 3.32, HEPG2TOX_R_SQUARED 0.957, PBLUC_HILL_SLOPE 18.3, PBLUC_R_SQUARED 0.283, read-out: LUCIFERASE INFECTION ASSAY - IC50): 2.49 µM
12 | CCOC(=O)c1ccc(N2C(=O)c3ccccc3C(C=NNC(=O)c3ccoc3C)C2=O)c(Cl)c1 (centres undefined) | > 10 | – | IC50 (HEPG2TOX_HILL_SLOPE 6.47, HEPG2TOX_R_SQUARED 0.622, PBLUC_HILL_SLOPE 28.4, PBLUC_R_SQUARED 0.423, read-out: LUCIFERASE INFECTION ASSAY - IC50): 9.76 µM
13 | O=C(Nc1ccc(Cl)c(S(=O)(=O)N2CCCC2)c1)c1[nH]nc2ccccc12 | > 10 | – | IC50 (HEPG2TOX_HILL_SLOPE 0.202, HEPG2TOX_R_SQUARED 0.183, PBLUC_HILL_SLOPE 12.1, PBLUC_R_SQUARED 0.78, read-out: LUCIFERASE INFECTION ASSAY - IC50): 9.03 µM
14 | CCc1cccc(CC)c1NC(=O)/C(C#N)=C/c1ccccc1C(F)(F)F | 4.5 | 3.68 | –
15 | Cc1sc2ncn(CC(=O)NC(c3ccc(F)cc3)c3cccs3)c(=O)c2c1-c1ccccc1 (centres undefined) | 9.83 | – | IC50 (FFLUC_HILL_SLOPE 15.7, FFLUC_R_SQUARED 0.526, PBLUC_HILL_SLOPE 17, PBLUC_R_SQUARED 0.112, read-out: LUCIFERASE INFECTION ASSAY - IC50): 8.64 µM
16 | O=C(c1ccccc1)c1ccc(OCc2coc(-c3ccccc3)n2)cc1 | > 10 | > 10 | –
17 | Cc1noc(C)c1CSc1ccccc1C(=O)NNC(=O)c1ccc2ccccc2n1 | 6.77 | – | IC50 (HEPG2TOX_HILL_SLOPE 3.33, HEPG2TOX_R_SQUARED 0.906, PBLUC_HILL_SLOPE 141, PBLUC_R_SQUARED 0.0106, read-out: LUCIFERASE INFECTION ASSAY - IC50): 6.66 µM
18 | COCOc1ccc(-c2cc(-c3ccc(N)nc3)cnc2N)cc1 | 3.91 | – | IC50 (PBLUC_HILL_SLOPE 17.1, PBLUC_R_SQUARED 0.834, read-out: LUCIFERASE INFECTION ASSAY - IC50): 3.44 µM
19 | CC(=O)c1c(C)[nH]c(C(=O)OCC(=O)/C=C2\N(C)c3ccccc3C2(C)C)c1C | > 10 | – | IC50 (HEPG2TOX_HILL_SLOPE 1.65, HEPG2TOX_R_SQUARED 0.38, PBLUC_HILL_SLOPE 17.8, PBLUC_R_SQUARED 0.202, read-out: LUCIFERASE INFECTION ASSAY - IC50): 9.63 µM
20 | CCOC(=O)c1sc(S(=O)(=O)Cc2ccccc2)c2c1CC(C)(C)CC2=O | > 8.12 | > 8.12 | –
21 | O=C(CCc1ncc(-c2ccccc2)o1)Nc1ncccc1O | > 10 | > 10 | –

Row | SMILES | IC90 [µM] | IC50 [1] [µM] | further results
22 | Cc1ccc(S(=O)(=O)Nc2ccc(Oc3ccc(Cl)cc3)cc2)cc1 | > 8.83 | – | IC50 (FFLUC_HILL_SLOPE 2.59, FFLUC_R_SQUARED 0.0226, PBLUC_HILL_SLOPE 17.9, PBLUC_R_SQUARED 0.275, read-out: LUCIFERASE INFECTION ASSAY - IC50): 8.28 µM
23 | Cc1[nH]c(=O)c(C#N)cc1C(=O)CSc1ccc(C(C)(C)C)cc1 | > 9.69 | > 9.69 | –
24 | CCOc1ccc(NC(=S)N/N=C2/C(=O)Nc3c(Cl)cc(Cl)cc32)cc1 | 1.16 | – | IC50 (FFLUC_HILL_SLOPE 3.63, FFLUC_R_SQUARED 0.721, HEPG2TOX_HILL_SLOPE 1.01, HEPG2TOX_R_SQUARED 0.763, PBLUC_HILL_SLOPE 15.5, PBLUC_R_SQUARED 0.598, read-out: LUCIFERASE INFECTION ASSAY - IC50): 1 µM
25 | CC1CCc2c(sc3ncnc(NCC(c4ccccc4)N(C)C)c23)C1 (centres undefined) | > 10 | > 10 | –
26 | CCCCNC(=O)c1c(NC(=O)c2ccc(OC)cc2)nc2c(C)cccn12 | > 8.67 | > 8.67 | –
27 | CCOc1cccc(-c2cn3c(-c4cnn(C)c4)cnc3cn2)c1 | > 10.3 | – | IC50 (HEPG2TOX_HILL_SLOPE 7.89, HEPG2TOX_R_SQUARED 0.0776, PBLUC_HILL_SLOPE 1.98, PBLUC_R_SQUARED 0.483, read-out: LUCIFERASE INFECTION ASSAY - IC50): 3.78 µM
28 | COc1ccccc1-c1cc(NC(C)=O)c2ncc(-c3cc(OC)c(OC)c(OC)c3)n2c1 | 2.96 | – | IC50 (HEPG2TOX_HILL_SLOPE 2.18, HEPG2TOX_R_SQUARED 0.547, PBLUC_HILL_SLOPE 12.3, PBLUC_R_SQUARED 0.226, read-out: LUCIFERASE INFECTION ASSAY - IC50): 2.47 µM
29 | CCCCNC(=O)Nc1ccn(C)n1 | > 16.8 | > 16.8 | –
30 | Cc1cc(-c2ccccc2)nc2c1/C(=N\O)CC(C)(C)C2 | > 11.8 | – | IC50 (HEPG2TOX_HILL_SLOPE 8.55, HEPG2TOX_R_SQUARED 0.808, PBLUC_HILL_SLOPE 3.52, PBLUC_R_SQUARED 0.12, read-out: LUCIFERASE INFECTION ASSAY - IC50): 8.87 µM
31 | CC1(CCc2ccccc2)NCC(c2ccc(Cl)cc2Cl)c2c1[nH]c1ccccc21 (centres undefined) | > 10 | – | IC50 (FFLUC_HILL_SLOPE 44.6, FFLUC_R_SQUARED 0.534, read-out: LUCIFERASE INFECTION ASSAY - IC50): > 10 µM
32 | COc1ccc2c(COC(=O)c3[nH]c(C)c(C(C)=O)c3C)cc(=O)oc2c1 | > 10 | > 10 | –
33 | O=C(Nc1ncccc1O)c1ccc(-c2ccc3c(c2)OCCO3)s1 | > 10 | 7.42 | –
34 | CC(C)(C)NC(=S)N/N=C/c1ncc(C(F)(F)F)cc1Sc1ccc(Cl)cc1 | 4.33 | – | IC50 (FFLUC_HILL_SLOPE 15.8, FFLUC_R_SQUARED 0.683, HEPG2TOX_HILL_SLOPE 2.2, HEPG2TOX_R_SQUARED 0.982, PBLUC_HILL_SLOPE 3.41, PBLUC_R_SQUARED 0.827, read-out: LUCIFERASE INFECTION ASSAY - IC50): 2.27 µM
35 | COC(=O)c1cc(CNCC(O)COc2ccc(C(C)(C)CC(C)(C)C)cc2)ccc1OC (centres undefined) | 4.63 | – | IC50 (PBLUC_HILL_SLOPE 7.71, PBLUC_R_SQUARED 0.722, read-out: LUCIFERASE INFECTION ASSAY - IC50): 3.48 µM
36 | FC(F)(F)Oc1cccc(-c2nc3ccnc(NCCc4ccccn4)c3[nH]2)c1 | 7.15 | – | IC50 (HEPG2TOX_HILL_SLOPE 1.56, HEPG2TOX_R_SQUARED 0.653, PBLUC_HILL_SLOPE 2.89, PBLUC_R_SQUARED 0.498, read-out: LUCIFERASE INFECTION ASSAY - IC50): 3.34 µM
37 | O=C(Cn1cnc2c(cnn2-c2ccccc2[N+](=O)[O-])c1=O)Nc1ccc(OCc2ccccc2)cc1 | > 10 | – | IC50 (PBLUC_HILL_SLOPE 3.88, PBLUC_R_SQUARED 0.658, read-out: LUCIFERASE INFECTION ASSAY - IC50): 7.44 µM
38 | CCC(C)c1ccc(-c2cc(C(=O)OCC(=O)c3c(N)n(C)c(=O)n(C)c3=O)c3ccccc3n2)cc1 (centres undefined) | > 10 | – | IC50 (PBLUC_HILL_SLOPE 18.2, PBLUC_R_SQUARED 0.259, read-out: LUCIFERASE INFECTION ASSAY - IC50): 9.1 µM
39 | COc1ccc(S(=O)(=O)N2CCc3ccccc32)cc1C(=O)NOCc1ccccc1 | > 10 | > 10 | –
40 | COC(=O)c1sccc1Oc1ccc(C(F)(F)F)cc1NC(=O)Nc1c(Cl)cc(Cl)cc1Cl | > 6.11 | > 6.11 | –
41 | CC(C)(C)NC(=S)N/N=C/c1ccnc(SCc2ccc(Cl)cc2)n1 | > 8.38 | – | IC50 (PBLUC_HILL_SLOPE 1.91, PBLUC_R_SQUARED 0.389, read-out: LUCIFERASE INFECTION ASSAY - IC50): 5.71 µM
42 | Cc1nn(-c2ccccc2)c(N2CCCCC2)c1/C=N/Nc1cc(-c2ccccc2)c2ccccc2n1 | > 10 | – | IC50 (FFLUC_HILL_SLOPE 1.88, FFLUC_R_SQUARED 0.83, PBLUC_HILL_SLOPE 15.6, PBLUC_R_SQUARED 0.0616, read-out: LUCIFERASE INFECTION ASSAY - IC50): 8.96 µM
